This is an account of results in paper PMC8674921 (ACS Omega, 2021).

For experiment [1], the target named is human D1R (recombinant CHO-D1R membrane homogenates) (Homo sapiens, UniProt P21728). Nature of the experiment: Antagonist radioligand binding assay, D1 receptor. Conditions: 50 μM kurarinone, [3H]SCH-23390, mean of duplicate.
In experiment [2] the target is hD1 receptor (CHO-D1R cells) (Homo sapiens, UniProt P21728). Put plainly: Functional GPCR assay, cAMP level. The format is cell-based. For orientation: Changes in cAMP serve as a functional read-out for many G protein-coupled receptors.
Experiment [3] has as its target hD2L receptor (CHO-D2LR cells) (Homo sapiens, UniProt P14416). Put plainly: Functional GPCR assay, intracellular calcium flux, hD2L. It counts as cell-based.
The target in experiment [4] is T1, hD4 receptor (CHO-D4R cells) (Homo sapiens, UniProt P21917).
T1 sequence (P21917 1-419): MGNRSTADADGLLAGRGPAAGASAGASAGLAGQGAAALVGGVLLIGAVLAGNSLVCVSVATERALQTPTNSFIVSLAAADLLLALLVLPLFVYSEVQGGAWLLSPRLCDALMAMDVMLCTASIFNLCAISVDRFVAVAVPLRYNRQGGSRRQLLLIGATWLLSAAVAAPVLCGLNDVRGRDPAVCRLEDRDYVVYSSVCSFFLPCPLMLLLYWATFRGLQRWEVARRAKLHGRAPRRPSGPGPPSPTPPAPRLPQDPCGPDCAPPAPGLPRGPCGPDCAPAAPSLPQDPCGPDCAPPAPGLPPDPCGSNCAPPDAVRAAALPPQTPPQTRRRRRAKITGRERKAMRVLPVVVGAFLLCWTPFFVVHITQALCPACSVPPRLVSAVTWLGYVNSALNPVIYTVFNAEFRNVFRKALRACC
Put plainly: Functional GPCR assay, cAMP level. It counts as cell-based.

The target in the next experiment is T2, recombinant hMAO-A (Homo sapiens, UniProt P21397).
T2 sequence (P21397 1-527): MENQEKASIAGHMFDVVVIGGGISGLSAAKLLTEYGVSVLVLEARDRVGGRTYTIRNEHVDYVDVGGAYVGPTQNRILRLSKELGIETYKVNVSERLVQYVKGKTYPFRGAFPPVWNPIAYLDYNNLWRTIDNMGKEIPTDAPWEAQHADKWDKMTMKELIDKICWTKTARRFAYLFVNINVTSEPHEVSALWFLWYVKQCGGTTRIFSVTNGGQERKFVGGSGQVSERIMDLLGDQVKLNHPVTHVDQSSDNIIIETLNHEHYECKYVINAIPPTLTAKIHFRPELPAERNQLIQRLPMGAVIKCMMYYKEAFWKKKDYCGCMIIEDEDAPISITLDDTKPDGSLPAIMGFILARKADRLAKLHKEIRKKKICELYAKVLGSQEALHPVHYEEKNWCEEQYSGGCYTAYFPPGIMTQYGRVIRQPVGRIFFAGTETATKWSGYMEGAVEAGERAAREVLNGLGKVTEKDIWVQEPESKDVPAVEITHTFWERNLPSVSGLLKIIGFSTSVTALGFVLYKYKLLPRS
Put plainly: hMAO-A inhibitory assay. It counts as biochemical.

The next experiment deals with T3, recombinant hMAO-B (Homo sapiens, UniProt P27338).
T3 sequence (P27338 1-520): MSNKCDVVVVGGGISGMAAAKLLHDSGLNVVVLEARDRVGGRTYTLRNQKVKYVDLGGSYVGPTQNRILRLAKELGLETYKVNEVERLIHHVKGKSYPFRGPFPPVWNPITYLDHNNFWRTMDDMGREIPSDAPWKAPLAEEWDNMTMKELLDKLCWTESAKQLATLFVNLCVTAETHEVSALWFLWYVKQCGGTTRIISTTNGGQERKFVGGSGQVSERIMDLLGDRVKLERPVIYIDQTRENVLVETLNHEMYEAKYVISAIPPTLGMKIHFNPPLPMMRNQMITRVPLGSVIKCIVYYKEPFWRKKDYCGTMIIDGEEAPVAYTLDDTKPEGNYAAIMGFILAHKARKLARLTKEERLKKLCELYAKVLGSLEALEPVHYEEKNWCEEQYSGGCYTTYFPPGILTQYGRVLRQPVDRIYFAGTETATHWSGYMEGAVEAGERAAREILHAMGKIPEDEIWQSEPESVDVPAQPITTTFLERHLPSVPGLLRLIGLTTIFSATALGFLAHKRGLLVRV
Nature of the experiment: hMAO-B inhibitory assay. It counts as biochemical.

Another experiment concerns BACE 1. Conditions: read-out: IC50 BACE 1; cited from earlier work.
The subject of a further experiment is BChE. Conditions: read-out: IC50 BChE; cited from earlier work.
For a further experiment, the system named is AChE. Conditions: read-out: IC50 AChE; cited from earlier work.
The target in another experiment is GABAA receptors. The conditions noted are these: read-out: EC50 GABAA receptors modulating effect; cited from earlier work.
The target of experiment [5] is human D3R (CHO-D3R membrane homogenates) (Homo sapiens, UniProt P35462). Nature of the experiment: Antagonist radioligand binding assay, D3 receptor. Conditions: read-out: % inhibition of control-specific binding.
Experiment [6] concerns the target T4, human D4R (CHO-D4R membrane homogenates) (Homo sapiens, UniProt P21917).
T4 sequence (P21917 1-419): T1 sequence (P21917 1-419)
Nature of the experiment: Antagonist radioligand binding assay, D4 receptor. Conditions: 50 μM kurarinone, [3H]methylspiperone, mean of duplicate.

Experiment [7] addresses human D2LR (transfected HEK-293 membrane homogenates) (Homo sapiens, UniProt P14416). Put plainly: Antagonist radioligand binding assay, D2L receptor. Conditions: 50 μM kurarinone, [3H]methylspiperone, mean of duplicate.
The target of experiment [8] is human V1AR (recombinant CHO-V1AR membrane homogenates) (Homo sapiens, UniProt P37288). Put plainly: Agonist radioligand binding assay, vasopressin V1A receptor. Conditions: read-out: % inhibition of control-specific binding.
The target in experiment [9] is T5, h5-HT1A receptor (Ba/F3-5-HT1AR cells) (Homo sapiens, UniProt P08908).
T5 sequence (P08908 1-422): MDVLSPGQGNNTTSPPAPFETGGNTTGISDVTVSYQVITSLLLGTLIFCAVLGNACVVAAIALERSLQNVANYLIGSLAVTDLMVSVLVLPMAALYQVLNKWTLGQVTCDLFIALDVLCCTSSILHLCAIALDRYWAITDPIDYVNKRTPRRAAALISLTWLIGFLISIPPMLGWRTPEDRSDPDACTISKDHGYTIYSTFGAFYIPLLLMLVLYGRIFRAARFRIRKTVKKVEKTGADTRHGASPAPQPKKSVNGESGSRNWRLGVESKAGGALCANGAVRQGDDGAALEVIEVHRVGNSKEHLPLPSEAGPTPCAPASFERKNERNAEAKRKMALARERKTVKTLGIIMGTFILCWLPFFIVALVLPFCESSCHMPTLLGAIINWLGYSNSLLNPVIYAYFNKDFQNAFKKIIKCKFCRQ
Nature of the experiment: Functional GPCR assay, intracellular calcium mobilization, h5-HT1A.

The subject of the next experiment is hMAO-A. Conditions: read-out: IC50 hMAO-A; selective hMAO-A inhibition; cited from earlier work.
The mark [10] stands for this setting: read-out: % inhibition of control agonist effect.

hD2L receptor (CHO-D2LR cells), sequence (P14416 whole entry): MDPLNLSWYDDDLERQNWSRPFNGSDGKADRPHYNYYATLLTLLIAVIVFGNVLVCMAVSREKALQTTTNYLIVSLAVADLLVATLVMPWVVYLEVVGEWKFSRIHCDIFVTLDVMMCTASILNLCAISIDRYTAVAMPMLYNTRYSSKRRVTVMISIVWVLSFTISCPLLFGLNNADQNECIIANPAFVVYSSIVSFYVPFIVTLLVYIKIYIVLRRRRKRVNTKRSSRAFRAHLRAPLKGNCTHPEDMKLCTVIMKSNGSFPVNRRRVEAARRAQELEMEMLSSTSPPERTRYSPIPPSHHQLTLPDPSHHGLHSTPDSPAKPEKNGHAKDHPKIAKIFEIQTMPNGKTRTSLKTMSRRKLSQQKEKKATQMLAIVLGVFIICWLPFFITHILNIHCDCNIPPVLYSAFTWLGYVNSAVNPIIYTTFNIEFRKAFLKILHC
human D1R (recombinant CHO-D1R membrane homogenates), sequence (P21728 whole entry): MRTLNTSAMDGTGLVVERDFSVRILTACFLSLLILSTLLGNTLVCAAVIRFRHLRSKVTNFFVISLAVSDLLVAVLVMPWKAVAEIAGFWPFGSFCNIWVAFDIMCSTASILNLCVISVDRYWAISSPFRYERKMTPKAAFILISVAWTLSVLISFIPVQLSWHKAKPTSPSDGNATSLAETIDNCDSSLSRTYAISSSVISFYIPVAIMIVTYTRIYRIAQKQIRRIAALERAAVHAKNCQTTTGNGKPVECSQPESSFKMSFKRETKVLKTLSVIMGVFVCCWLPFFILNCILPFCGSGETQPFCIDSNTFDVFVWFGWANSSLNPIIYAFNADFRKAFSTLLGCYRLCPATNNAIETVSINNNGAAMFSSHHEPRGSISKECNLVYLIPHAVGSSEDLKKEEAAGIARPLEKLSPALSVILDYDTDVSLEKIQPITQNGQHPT
hD1 receptor (CHO-D1R cells), sequence (P21728 whole entry): as above
human D2LR (transfected HEK-293 membrane homogenates), sequence (P14416 whole entry): as the sequence (P14416 whole entry) above
human D3R (CHO-D3R membrane homogenates), sequence (P35462 whole entry): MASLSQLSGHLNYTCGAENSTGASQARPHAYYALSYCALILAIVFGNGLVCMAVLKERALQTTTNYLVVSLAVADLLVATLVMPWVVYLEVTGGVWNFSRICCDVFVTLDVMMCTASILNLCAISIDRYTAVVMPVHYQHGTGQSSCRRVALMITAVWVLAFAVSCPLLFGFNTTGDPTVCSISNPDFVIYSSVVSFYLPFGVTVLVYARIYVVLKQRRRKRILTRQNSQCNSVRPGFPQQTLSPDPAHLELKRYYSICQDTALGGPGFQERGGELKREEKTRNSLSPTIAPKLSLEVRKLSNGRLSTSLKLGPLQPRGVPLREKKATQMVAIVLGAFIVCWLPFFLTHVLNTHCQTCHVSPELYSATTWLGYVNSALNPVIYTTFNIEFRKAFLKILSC
human V1AR (recombinant CHO-V1AR membrane homogenates), sequence (P37288 whole entry): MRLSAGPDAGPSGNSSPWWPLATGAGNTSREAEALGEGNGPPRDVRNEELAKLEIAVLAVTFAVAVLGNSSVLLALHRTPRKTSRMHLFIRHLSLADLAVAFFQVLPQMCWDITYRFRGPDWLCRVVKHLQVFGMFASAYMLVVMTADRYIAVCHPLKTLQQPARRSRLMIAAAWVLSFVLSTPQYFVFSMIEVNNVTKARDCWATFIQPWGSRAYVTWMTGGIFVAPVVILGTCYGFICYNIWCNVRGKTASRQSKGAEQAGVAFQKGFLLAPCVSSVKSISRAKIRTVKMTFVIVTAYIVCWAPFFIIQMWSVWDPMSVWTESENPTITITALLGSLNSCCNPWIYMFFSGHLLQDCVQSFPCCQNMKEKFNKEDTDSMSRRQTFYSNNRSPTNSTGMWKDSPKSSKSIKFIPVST

Regarding `C=C(C)[C@H](CC=C(C)C)Cc1c(O)cc(OC)c2c1O[C@H](c1ccc(O)cc1O)CC2=O` [kurarinone], the “% inhibition of control-specific binding” value is on record as > 70% in [1], 99.1% in [1] (listed as Kurarinone), 71.1% in experiment [6] and 78.5% in experiment [7]. Further, the “% stimulation of control agonist effect” value is recorded as 0.25 ± 0.64% in [2] (100 μM, hD1, agonist mode, control 10 μM DA); 113 ± 28.9% in [3] (100 μM, hD2L, agonist mode, control 10 μM DA); 71.7 ± 6.36% in experiment [4] (100 μM, hD4, agonist mode, control 1000 nm DA); 17.8 ± 1.13% in experiment [9] (100 μM, h5-HT1A, agonist mode, control 0.625 μM 5-HT). Besides, the inhibition at 100 µM in [2] (setting [10]) is 98.5%; in experiment [3] (setting [10]), 43.8%; in experiment [4] (setting [10]), -4.2%; in experiment [9] (setting [10]) it was 30.3%. Also, the “agonist response in antagonist mode assay” value in experiment [3] (100 μM, D2LR, antagonist mode) is given as “at least 25%”. The “agonist or agonist-like effect flag in antagonist mode” value in experiment [3] (100 μM, hD2L, antagonist mode) is given as “AGO (the test compound induced at least 25% agonist or agonist-like effect at this concentration)”. The EC50 in [3] (EC50 (50% of control agonist effect), hD2L, agonist mode, mean ± S.D., duplicate) was 22.4 ± 3.46 µM; in experiment [4], 71.3 ± 4.94 µM; on GABAA receptors, 8.1 ± 1.4 µM. Moreover, the IC50 at recombinant hMAO-A is 186 ± 6.17 µM; at recombinant hMAO-B it was 198 ± 12.7 µM; with BACE 1, 24.5 ± 1.73 µM; in the experiment with BChE, 5.29 ± 0.67 µM; with AChE, 74.3 ± 7.85 µM. Besides, the Ki at recombinant hMAO-A (Ki hMAO-A, Dixon and secondary plots) is 65.1 ± 3.53 µM. Besides, the “Inhibition type hMAO-A” value on recombinant hMAO-A (Lineweaver-Burk plots) was “competitive”. Further, the “Inhibition type hMAO-B” value on recombinant hMAO-B (Lineweaver-Burk plots) is reported as “mixed”. In addition, the inhibition at 50 µM in experiment [5] turned out to be 49.2%; in experiment [8], 47.6%.

For `C=C(C)[C@H](CC=C(C)C)Cc1c(O)cc(O)c2c1O[C@H](c1ccc(O)cc1O)CC2=O` [sophoraflavone G], in the experiment with hMAO-A, the IC50 is 38.8 ± 1.1 µM.

As usually defined, the inhibition is the relative decrease from the control value, in per cent. The term EC50 denotes the concentration that produces a half-maximal response. As usually defined, the IC50 is the midpoint of a concentration-inhibition curve. By Ki is commonly meant a measure of affinity in units of concentration, obtained from inhibition or displacement.
